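96-well plates; 48 h exposure; 5 concentrations. Endpoints by linear interpolation between flanking doses. Not reached: highest tested concentration assigned. Here, GI50 denotes the concentration required for 50% inhibition of growth.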 Active and inactive are the calls of the source. No stated cut-off is given here; in the data, active = GI50 up to about 1.1 µM and inactive = higher.
Tests used:
Test in all cases: DTP human tumour cell line panel, 48 h
SF-268 = test system: SF-268
HCT-116 = test system: HCT-116
DU-145 = test system: DU-145
BT-549 = test system: BT-549
TK-10 = test system: TK-10
SN12C = test system: SN12C
M14 = test system: M14
OVCAR-5 = test system: OVCAR-5
MDA-N = test system: MDA-N
RXF 393 = test system: RXF 393
HT-29 = test system: HT-29
SW-620 = test system: SW-620
NCI-H522 = test system: NCI-H522
786-0 = test system: 786-0
SK-OV-3 = test system: SK-OV-3
A549 = test system: A549
SNB-19 = test system: SNB-19
A498 = test system: A498
MOLT-4 = test system: MOLT-4
NCI-H460 = test system: NCI-H460
T47D = test system: T47D
LOX IMVI = test system: LOX IMVI
MDA-MB-435 = test system: MDA-MB-435
HOP-92 = test system: HOP-92
SF-539 = test system: SF-539
ACHN = test system: ACHN
OVCAR-4 = test system: OVCAR-4
HCC 2998 = test system: HCC 2998
U-251 = test system: U-251
CAKI-1 = test system: CAKI-1
Malme-3M = test system: Malme-3M
OVCAR-3 = test system: OVCAR-3
UACC-257 = test system: UACC-257
UO-31 = test system: UO-31
MDA-MB-231 = test system: MDA-MB-231
KM12 = test system: KM12
SF-295 = test system: SF-295
SK-MEL-5 = test system: SK-MEL-5
IGROV-1 = test system: IGROV-1
EKVX = test system: EKVX
Hs-578T = test system: Hs-578T
UACC-62 = test system: UACC-62
OVCAR-8 = test system: OVCAR-8
HL-60 = test system: HL-60
CCRF-CEM = test system: CCRF-CEM
K562 = test system: K562
HCT-15 = test system: HCT-15
NCI-H23 = test system: NCI-H23
COLO 205 = test system: COLO 205
NCI-H226 = test system: NCI-H226
PC-3 = test system: PC-3
SK-MEL-2 = test system: SK-MEL-2
SK-MEL-28 = test system: SK-MEL-28
NCI/ADR-RES = test system: NCI/ADR-RES
RPMI-8226 = test system: RPMI-8226
SR = test system: SR
MCF7 = test system: MCF7
SNB-75 = test system: SNB-75
HOP-62 = test system: HOP-62

Structure (SMILES): CCCNC(C#N)c1ccc(C(C#N)NCCC)cc1 (configuration not stated)
- GI50 (SF-268): > 100 µM (inactive)
- GI50 (HCT-116): 40.3 µM (inactive)
- GI50 (DU-145): > 100 µM (inactive)
- GI50 (BT-549): > 100 µM (inactive)
- GI50 (TK-10): > 100 µM (inactive)
- GI50 (SN12C): > 100 µM (inactive)
- GI50 (M14): > 100 µM (inactive)
- GI50 (OVCAR-5): > 100 µM (inactive)
- GI50 (MDA-N): 36.3 µM (inactive)
- GI50 (RXF 393): > 100 µM (inactive)
- GI50 (HT-29): > 100 µM (inactive)
- GI50 (SW-620): > 100 µM (inactive)
- GI50 (NCI-H522): > 100 µM (inactive)
- GI50 (786-0): > 100 µM (inactive)
- GI50 (SK-OV-3): > 100 µM (inactive)
- GI50 (A549): > 100 µM (inactive)
- GI50 (SNB-19): > 100 µM (inactive)
- GI50 (A498): > 100 µM (inactive)
- GI50 (MOLT-4): 37.3 µM (inactive)
- GI50 (NCI-H460): > 100 µM (inactive)
- GI50 (T47D): > 100 µM (inactive)
- GI50 (LOX IMVI): > 100 µM (inactive)
- GI50 (MDA-MB-435): 76.4 µM (inactive)
- GI50 (HOP-92): 45.4 µM (inactive)
- GI50 (SF-539): > 100 µM (inactive)
- GI50 (ACHN): > 100 µM (inactive)
- GI50 (OVCAR-4): > 100 µM (inactive)
- GI50 (HCC 2998): > 100 µM (inactive)
- GI50 (U-251): > 100 µM (inactive)
- GI50 (CAKI-1): > 100 µM (inactive)
- GI50 (Malme-3M): > 100 µM (inactive)
- GI50 (OVCAR-3): > 100 µM (inactive)
- GI50 (UACC-257): > 100 µM (inactive)
- GI50 (UO-31): > 100 µM (inactive)
- GI50 (MDA-MB-231): > 100 µM (inactive)
- GI50 (KM12): > 100 µM (inactive)
- GI50 (SF-295): > 100 µM (inactive)
- GI50 (SK-MEL-5): > 100 µM (inactive)
- GI50 (IGROV-1): > 100 µM (inactive)
- GI50 (EKVX): > 100 µM (inactive)
- GI50 (Hs-578T): > 100 µM (inactive)
- GI50 (UACC-62): > 100 µM (inactive)
- GI50 (OVCAR-8): 29.9 µM (inactive)
- GI50 (HL-60): 40.8 µM (inactive)
- GI50 (CCRF-CEM): 24.4 µM (inactive)
- GI50 (K562): 37.8 µM (inactive)
- GI50 (HCT-15): > 100 µM
- GI50 (NCI-H23): > 100 µM (inactive)
- GI50 (COLO 205): 81.3 µM (inactive)
- GI50 (NCI-H226): > 100 µM (inactive)
- GI50 (PC-3): > 100 µM (inactive)
- GI50 (SK-MEL-2): > 100 µM (inactive)
- GI50 (SK-MEL-28): > 100 µM (inactive)
- GI50 (NCI/ADR-RES): 50.2 µM (inactive)

Structure (SMILES): COc1c(CCl)cc(-c2cc(=O)c3ccccc3s2)cc1CCl
- GI50 (RPMI-8226): 3.77 µM (inactive)
- GI50 (SF-268): 9.23 µM (inactive)
- GI50 (HCT-116): 5.58 µM (inactive)
- GI50 (DU-145): > 100 µM (inactive)
- GI50 (BT-549): 36.6 µM (inactive)
- GI50 (TK-10): 26.9 µM (inactive)
- GI50 (SN12C): > 100 µM (inactive)
- GI50 (M14): > 100 µM (inactive)
- GI50 (OVCAR-5): > 100 µM (inactive)
- GI50 (MDA-N): 6.08 µM (inactive)
- GI50 (RXF 393): 1.63 µM (inactive)
- GI50 (SR): 3.18 µM (inactive)
- GI50 (NCI-H522): 1.99 µM (inactive)
- GI50 (786-0): 0.65 µM (active)
- GI50 (SK-OV-3): 27.3 µM (inactive)
- GI50 (A549): 37.8 µM (inactive)
- GI50 (SNB-19): 29.3 µM (inactive)
- GI50 (A498): 20.4 µM (inactive)
- GI50 (MOLT-4): 1.91 µM (inactive)
- GI50 (NCI-H460): 22.9 µM (inactive)
- GI50 (T47D): 1.66 µM (inactive)
- GI50 (LOX IMVI): 1.86 µM (inactive)
- GI50 (MCF7): 1.91 µM (inactive)
- GI50 (MDA-MB-435): > 100 µM (inactive)
- GI50 (HOP-92): 0.0449 µM (active)
- GI50 (SF-539): 6.55 µM (inactive)
- GI50 (ACHN): 45.2 µM (inactive)
- GI50 (OVCAR-4): 3.58 µM (inactive)
- GI50 (HCC 2998): 2.29 µM (inactive)
- GI50 (U-251): 18.8 µM (inactive)
- GI50 (CAKI-1): 7.62 µM (inactive)
- GI50 (Malme-3M): 1.5 µM (inactive)
- GI50 (OVCAR-3): 11.5 µM (inactive)
- GI50 (UACC-257): > 100 µM (inactive)
- GI50 (UO-31): 1.95 µM (inactive)
- GI50 (MDA-MB-231): 2.76 µM (inactive)
- GI50 (KM12): 3.33 µM (inactive)
- GI50 (SF-295): 11.9 µM (inactive)
- GI50 (SK-MEL-5): 39.4 µM (inactive)
- GI50 (IGROV-1): 2.51 µM (inactive)
- GI50 (EKVX): > 100 µM (inactive)
- GI50 (Hs-578T): 9.57 µM (inactive)
- GI50 (SNB-75): 6.78 µM (inactive)
- GI50 (UACC-62): 4.99 µM (inactive)
- GI50 (OVCAR-8): 15 µM (inactive)
- GI50 (HL-60): 2.59 µM (inactive)
- GI50 (CCRF-CEM): 2.24 µM (inactive)
- GI50 (K562): 2.68 µM (inactive)
- GI50 (HCT-15): > 100 µM
- GI50 (NCI-H23): 18.9 µM (inactive)
- GI50 (COLO 205): 3.33 µM (inactive)
- GI50 (NCI-H226): 30.1 µM (inactive)
- GI50 (HOP-62): 10.6 µM (inactive)
- GI50 (PC-3): > 100 µM (inactive)
- GI50 (SK-MEL-2): 10.1 µM (inactive)
- GI50 (SK-MEL-28): > 94.4 µM (inactive)

Structure (SMILES): c1ccc(SC(Sc2ccccc2)c2ccc3c(c2)OCO3)cc1
- GI50 (SF-268): 93.1 µM (inactive)
- GI50 (HCT-116): > 100 µM (inactive)
- GI50 (DU-145): > 100 µM (inactive)
- GI50 (BT-549): > 100 µM (inactive)
- GI50 (TK-10): > 100 µM (inactive)
- GI50 (SN12C): > 100 µM (inactive)
- GI50 (M14): > 100 µM (inactive)
- GI50 (OVCAR-5): > 100 µM (inactive)
- GI50 (MDA-N): 88.9 µM (inactive)
- GI50 (RXF 393): > 100 µM (inactive)
- GI50 (HT-29): 65.2 µM (inactive)
- GI50 (SR): > 100 µM (inactive)
- GI50 (SW-620): > 100 µM (inactive)
- GI50 (NCI-H522): 85.9 µM (inactive)
- GI50 (786-0): > 100 µM (inactive)
- GI50 (A549): > 100 µM (inactive)
- GI50 (SNB-19): > 100 µM (inactive)
- GI50 (A498): 90.2 µM (inactive)
- GI50 (MOLT-4): 38.1 µM (inactive)
- GI50 (NCI-H460): > 100 µM (inactive)
- GI50 (T47D): > 100 µM (inactive)
- GI50 (LOX IMVI): > 100 µM (inactive)
- GI50 (MDA-MB-435): > 100 µM (inactive)
- GI50 (HOP-92): 16.3 µM (inactive)
- GI50 (ACHN): > 100 µM (inactive)
- GI50 (OVCAR-4): > 100 µM (inactive)
- GI50 (U-251): > 100 µM (inactive)
- GI50 (CAKI-1): > 100 µM (inactive)
- GI50 (Malme-3M): > 100 µM (inactive)
- GI50 (OVCAR-3): 60.3 µM (inactive)
- GI50 (UACC-257): > 100 µM (inactive)
- GI50 (UO-31): > 100 µM (inactive)
- GI50 (MDA-MB-231): > 100 µM (inactive)
- GI50 (KM12): > 100 µM (inactive)
- GI50 (SF-295): > 100 µM (inactive)
- GI50 (SK-MEL-5): > 100 µM (inactive)
- GI50 (IGROV-1): > 100 µM (inactive)
- GI50 (EKVX): 37.2 µM (inactive)
- GI50 (Hs-578T): > 100 µM (inactive)
- GI50 (UACC-62): > 100 µM (inactive)
- GI50 (OVCAR-8): > 100 µM (inactive)
- GI50 (HL-60): > 100 µM (inactive)
- GI50 (CCRF-CEM): > 100 µM (inactive)
- GI50 (K562): > 100 µM (inactive)
- GI50 (HCT-15): > 100 µM
- GI50 (NCI-H23): > 100 µM (inactive)
- GI50 (NCI-H226): 23.6 µM (inactive)
- GI50 (HOP-62): > 100 µM (inactive)
- GI50 (PC-3): > 100 µM (inactive)
- GI50 (SK-MEL-2): > 100 µM (inactive)
- GI50 (SK-MEL-28): > 100 µM (inactive)
- GI50 (NCI/ADR-RES): > 100 µM (inactive)
